Assay results from article PMC9416111, “Synthesis and Biological Activity of Unsymmetrical Monoterpenylhetaryl Disulfides” (Molecules, 2022).
Values after ≈ are worked out from the molar mass of the structure shown.

Experiments:
[1] = system: P. aeruginosa ATCC 27853; assay: Antibacterial MIC, broth microdilution (EUCAST); assay type: cell-based, Pseudomonas aeruginosa; details: Pseudomonas aeruginosa, ATCC27853; 24 h, Mueller-Hinton broth
Experimental: (§1) Minimum inhibitory concentrations (MICs) of compounds was determined by the broth microdilution assay in 96-well plates (Eppendorf, Hamburg, Germany) according to the EUCAST rules for antimicrobial susceptibility testing in full Mueller-Hinton broth (MH). The concentrations of compounds to be tested ranged from 1 to 2048 µg/mL. The MIC was determined as the lowest concentration of an antibiotic for which no visible bacterial growth could be observed after 24 h of incubation.

[2] = system: S. typhimurium TA98, TA100 and TA102 strains; assay: Mutagenicity in the Ames test (spot-test); assay type: cell-based, Salmonella typhimurium; details: strain in which mutagenicity was found; NF = not found
Experimental: The mutagenicity of compounds was evaluated in the Ames test with S. typhimurium TA98, TA100 and TA102 strains as described in [38]. The spot-test modification has been applied to avoid false-negative results driven with antibacterial activity of compounds. The tested compound was considered to be mutagenic if the number of revertant colonies increased more than 2 times close to the filter paper with compound.

[3] = in vitro; details: dog
[4] = system: Candida albicans 703 clinical isolate; assay: Antifungal MIC, broth microdilution (CLSI M27-A3); details: Candida albicans, 24 h, read-out: MIC C. albicans 703 Clinical Isolate
[5] = Cytotoxicity, MTT on EBL cells; details: bovine, EBL cells (embryonic bovine lung)
Experimental: Cytotoxicity of compounds was determined using the microtetrazolium test (MTT) on EBL cells. The cells were cultured in DMEM—Dulbecco’s Modified Eagle’s Medium (Sigma Aldrich, St. Louis, MO, USA) supplemented with 10% FBS, 2 mM L-glutamine, 100 µg/mL penicillin and 100 µg/mL streptomycin. Cells were seeded in 96-well plates with the density of 3000 cells per well and left overnight to allow for the attachment. Cells were next cultured at 37 °C and 5% CO2 in the presence of compounds of interest at various concentrations from 1.25 to 160 µg/mL. After 24 h of cultivation the cells were subjected to MTT-assay. The formazan was solubilized by DMSO and the optical density was measured on Tecan Infinite 200Pro at 570 nm. The concentration required to inhibit cellular dehydrogenase activity by 50% (CC50 value) was calculated by using GraphPad Prism 6.0 software (GraphPad software, San Diego, CA, USA).

[6] = system: influenza virus A/Puerto Rico/8/34 (H1N1); assay: Antiviral cell protection assay in MDCK cells; assay type: cell-based; details: H1N1, MDCK, 72 h
[7] = system: red blood cells from laboratory mice; assay: Erythrotoxicity (hemolytic activity); assay type: cell-based; details: 100 μM, 1, 3 and 5 h of incubation
Experimental: No significant hemolytic activity was detected at a concentration of 1 μM (Figure 3B).
(§2) To evaluate the erythrotoxicity, antioxidant and membrane-protective activity of the compounds, we used 0.5% (v/v) suspension of red blood cells from laboratory mice in phosphate-buffered saline (PBS, pH 7.4). The test substances were previously dissolved in ethanol. Erythrotoxicity (hemolytic activity) was evaluated by the degree of hemolysis of red blood cells 1–5 h after the introduction of solutions of the compounds. Membrane-protective and antioxidant activity was determined by the degree of inhibition of H2O2-induced hemolysis. For this purpose, 30 min after the erythrocyte suspension was added to the solutions of the test compounds, hemolysis was initiated with a solution of hydrogen peroxide (0.006%). Then, the reaction mixture was incubated in a thermostatic shaker Biosan ES-20 with slow stirring at 37 °C for 5 h. An aliquot was taken from the incubation medium every hour, centrifuged for 5 min (1600× g), and the degree of hemolysis was determined by the hemoglobin content in the supernatant on a ThermoSpectromic Genesys 20 spectrophotometer (Thermo Fisher Scientific, Waltham, MA, USA) at 524 nm. The percentage of hemolysis was calculated in relation to the complete hemolysis of the sample. Each experiment was designed with 4–8 replicates. Statistical data processing and charting were performed using the Microsoft Office Excel 2007 software package (Microsoft, Redmond, WA, USA). The data represent the mean ± SE.
Figure 3 Hemolytic activity of unsymmetrical disulfides at the concentration of 100 μM (A) and 1 μM (B) after 1, 3 and 5 h of incubation.

[8] = system: S. aureus MRSA clinical isolate; assay: Antibacterial MIC, broth microdilution (EUCAST); assay type: cell-based, Staphylococcus aureus; details: Staphylococcus aureus, MRSA; 24 h, Mueller-Hinton broth
Experimental: as §1

[9] = system: S. aureus ATCC 29213 (MSSA); assay: Antibacterial MIC, broth microdilution (EUCAST); assay type: cell-based, Staphylococcus aureus; details: Staphylococcus aureus, 24 h, Mueller-Hinton broth
Experimental: as §1

[10] = Antioxidant activity: inhibition of lipid peroxidation (TBA-RS) in brain homogenates; set-up: species or system mice; details: 100 μM and 1 mM, 1 h after initiation of LPO (ascorbate/Fe2+)
Experimental: The antioxidant activity of monoterpenylhetaryl disulfides was evaluated for their in vitro ability to inhibit lipid peroxidation (LPO) processes in the brain lipids of laboratory mice. The brain was removed and homogenized (10%) in physiological saline (pH = 7.4) and centrifuged for 10 min. Then, an aliquot of the supernatant (S1) was taken, into which the test compounds were added as solutions in ethanol (final concentration of 100 μM and 1 mM). After 30 min, LPO was initiated by adding a freshly prepared solution of FeSO4 and ascorbic acid. Then, the test samples were incubated for one hour at 37 °C with slow stirring in a thermostatic Biosan ES-20 shaker (Biosan, Riga, Latvia). The concentration of LPO secondary products reacting with 2-thiobarbituric acid (thiobarbituric acid reactive substances, TBA-RS) was determined using ThermoSpectromic Genesys 20 spectrophotometer (Thermo Fisher Scientific, Waltham, MA, USA) at λ = 532 nm, the extinction coefficient 1.56 × 10^5 M^−1cm^−1 was used for calculations.
Figure 2 Effect of unsymmetrical disulfides and Trolox (T) at concentrations of 100 μM and 1 mM on the content of TBA-RS in the brain homogenate in an hour after the initiation of LPO (ascorbate/Fe^2+ initiators). C—control sample containing no test compounds; I—intact sample in which LPO was not initiated.

[11] = system: red blood cells from laboratory mice; assay: Membrane-protective activity: H2O2-induced hemolysis of erythrocytes; assay type: cell-based; details: 1 μM, 1–5 h
Experimental: The membrane-protective properties of the compounds were evaluated in the model of oxidative hemolysis of erythrocytes at a concentration of 1 μM in order to avoid the effect of hemolytic activity.
as §2
Figure 4 Effect of unsymmetrical disulfides and Trolox (T) at a concentration of 1 μM on the level of H2O2-induced hemolysis of erythrocytes after 1–5 h of incubation.

**Q.** With `CC(C)[C@@H]1CC[C@@H](C)C[C@@H]1SSc1nc2ccccc2s1` [Compound 1a, 2-(((1S,2S,5R)-2-isopropyl-5-methylcyclohexyl)disulfanyl)benzo[d]thiazole] as the molecule, how does the MIC [1] read?
**A.** Its MIC is 16 µg/mL (≈ 47.4 µM).

**Q.** And the “Mutagenicity in the Ames Test” value [2]?
**A.** The value was “TA 100”.

**Q.** And the CC50 [3]?
**A.** Its CC50 is 36 ± 3 µM.

**Q.** And the MIC [4]?
**A.** The MIC was 512 µg/mL (≈ 1520 µM).

**Q.** And the CC50 at 24 h [5]?
**A.** Its CC50 at 24 h is 11.7 µg/mL (≈ 34.7 µM).

**Q.** What about the IC50 [6] of the same molecule?
**A.** Its IC50 is 5 ± 1 µM.

**Q.** And the “hemolytic activity (erythrotoxicity), in words” value [7]?
**A.** Its value is “Low hemolytic activity”.

**Q.** What about the MIC [8] of the same molecule?
**A.** The MIC was 16 µg/mL (≈ 47.4 µM).

**Q.** And the MIC [9]?
**A.** The MIC was 16 µg/mL (≈ 47.4 µM).

**Q.** What does the source list for `Cc1cc(C)nc(SS[C@H]2C[C@H](C)CC[C@H]2C(C)C)n1` [Compound 1b, 2-(((1S,2S,5R)-2-isopropyl-5-methylcyclohexyl)disulfanyl)-4,6-dimethylpyrimidine]?
**A.** MIC [1]: 32 µg/mL (≈ 103 µM); Mutagenicity in the Ames Test [2]: TA 102; CC50 [3]: 29 ± 2 µM; MIC [4]: 512 µg/mL (≈ 1650 µM); CC50 at 24 h [5]: 14 µg/mL (≈ 45.1 µM); IC50 [6]: 13 ± 2 µM; MIC [8]: 32 µg/mL (≈ 103 µM); MIC [9]: 16 µg/mL (≈ 51.5 µM)

**Q.** With `COC(=O)c1cccnc1SS[C@H]1C[C@H]2C[C@@H]([C@@H]1CO)C2(C)C` [Compound 3c, Methyl 2-(((1S,2R,3S,5R)-2-(hydroxymethyl)-6,6-dimethylbicyclo[3.1.1]hept-3-yl)disulfanyl)pyridine-3-carboxylate] as the molecule, how does the MIC [1] read?
**A.** Its MIC is 1020 µg/mL (≈ 2900 µM).

**Q.** What about the CC50 [3] of the same molecule?
**A.** Its CC50 is over 283 µM.

**Q.** And the MIC [4]?
**A.** The MIC was 1020 µg/mL (≈ 2900 µM).

**Q.** What about the CC50 at 24 h [5] of the same molecule?
**A.** The CC50 at 24 h was 8.1 µg/mL (≈ 22.9 µM).

**Q.** And the IC50 [6]?
**A.** Its IC50 is 255 ± 31 µM.

**Q.** What about the “antioxidant activity (inhibition of oxidation of brain lipids), in words” value [10] of the same molecule?
**A.** The value was “highest antioxidant activity”.

**Q.** And the “membrane-protective activity, in words” value [11]?
**A.** Its value is “most active”.

**Q.** What about the MIC [8] of the same molecule?
**A.** The MIC was 32 µg/mL (≈ 90.5 µM).

**Q.** And the MIC [9]?
**A.** The MIC was 64 µg/mL (≈ 181 µM).

**Q.** What does the source list for `COC(=O)c1cccnc1SSC[C@@H]1[C@@H](O)C[C@H]2C[C@@H]1C2(C)C` [Compound 4c, Methyl 2-((((1S,2S,3S,5R)-3-hydroxy-6,6-dimethylbicyclo[3.1.1]heptan-2-yl)methyl)disulfanyl)pyridine-3-carboxylate]?
**A.** MIC [1]: > 1020 µg/mL; CC50 [3]: 40 ± 2 µM; MIC [4]: 1020 µg/mL (≈ 2900 µM); IC50 [6]: 34 ± 4 µM; antioxidant activity (inhibition of oxidation of brain lipids), in words [10]: highest antioxidant activity; membrane-protective activity, in words [11]: most active; MIC [8]: > 1020 µg/mL; MIC [9]: 1020 µg/mL (≈ 2900 µM)
